Activity calls are given as the source filed them. The calls are words filed in the database; no cut-off is given here.
How the values were obtained:
PC-3 = assay: Growth inhibition of human PC3 cells after 48 hrs by Sulforhodamine B assay; assay type: functional; details: PC-3, 48 h, read-out: logGI50 (converted)
DU-145 = assay: Growth inhibition of human DU145 cells after 48 hrs by Sulforhodamine B assay; assay type: functional; details: DU-145, 48 h, read-out: logGI50 (converted)
MKN-74 = assay: Growth inhibition of human MKN74 cells after 48 hrs by Sulforhodamine B assay; assay type: functional; details: MKN-74, 48 h, read-out: logGI50 (converted)
MKN-7 = assay: Growth inhibition of human MKN7 cells after 48 hrs by Sulforhodamine B assay; assay type: functional; details: MKN-7, 48 h, read-out: logGI50 (converted)
MKN-28 = assay: Growth inhibition of human MKN28 cells after 48 hrs by Sulforhodamine B assay; assay type: functional; details: MKN-28, 48 h, read-out: logGI50 (converted)
St-4 = assay: Growth inhibition of human St-4 cells after 48 hrs by Sulforhodamine B assay; assay type: functional; details: St-4, 48 h, read-out: logGI50 (converted)
[1] = Growth inhibition of human RXF631L cells after 48 hrs by Sulforhodamine B assay; assay type: functional; details: RXF 631, 48 h, read-out: logGI50 (converted)
ACHN = assay: Growth inhibition of human ACHN cells after 48 hrs by Sulforhodamine B assay; assay type: functional; details: read-out: logGI50 (converted)
SK-OV-3 = assay: Growth inhibition of human SKOV3 cells after 48 hrs by Sulforhodamine B assay; assay type: functional; details: SK-OV-3, 48 h, read-out: logGI50 (converted)
OVCAR-3 = assay: Growth inhibition of human OVCAR3 cells after 48 hrs by Sulforhodamine B assay; assay type: functional; details: OVCAR-3, 48 h, read-out: logGI50 (converted)
OVCAR-5 = assay: Growth inhibition of human OVCAR5 cells after 48 hrs by Sulforhodamine B assay; assay type: functional; details: OVCAR-5, 48 h, read-out: logGI50 (converted)
LOX IMVI = assay: Growth inhibition of human LOXIMVI cells after 48 hrs by Sulforhodamine B assay; assay type: functional; details: read-out: logGI50 (converted)
DMS-114 = assay: Growth inhibition of human DMS114 cells after 48 hrs by Sulforhodamine B assay; assay type: functional; details: DMS-114, 48 h, read-out: logGI50 (converted)
A549 = assay: Growth inhibition of human A549 cells after 48 hrs by Sulforhodamine B assay; assay type: functional; details: A549, 48 h, read-out: logGI50 (converted)
DMS-273 = assay: Growth inhibition of human DMS273 cells after 48 hrs by Sulforhodamine B assay; assay type: functional; details: DMS-273, 48 h, read-out: logGI50 (converted)
NCI-H460 = assay: Growth inhibition of human NCI-H460 cells after 48 hrs by Sulforhodamine B assay; assay type: functional; details: NCI-H460, 48 h, read-out: logGI50 (converted)
NCI-H522 = assay: Growth inhibition of human NCI-H522 cells after 48 hrs by Sulforhodamine B assay; assay type: functional; details: NCI-H522, 48 h, read-out: logGI50 (converted)
NCI-H23 = assay: Growth inhibition of human NCI-H23 cells after 48 hrs by Sulforhodamine B assay; assay type: functional; details: NCI-H23, 48 h, read-out: logGI50 (converted)
HCT-116 = assay: Growth inhibition of human HCT116 cells after 48 hrs by Sulforhodamine B assay; assay type: functional; details: HCT-116, 48 h, read-out: logGI50 (converted)
HCT-15 = assay: Growth inhibition of human HCT15 cells after 48 hrs by Sulforhodamine B assay; assay type: functional; details: HCT-15, 48 h, read-out: logGI50 (converted)
SNB-78 = assay: Growth inhibition of human SNB-78 cells after 48 hrs by Sulforhodamine B assay; assay type: functional; details: SNB-78, 48 h, read-out: logGI50 (converted)
[2] = Growth inhibition of human HCC2998 cells after 48 hrs by Sulforhodamine B assay; assay type: functional; details: HCC 2998, 48 h, read-out: logGI50 (converted)
SF-539 = assay: Growth inhibition of human SF539 cells after 48 hrs by Sulforhodamine B assay; assay type: functional; details: SF-539, 48 h, read-out: logGI50 (converted)
SF-295 = assay: Growth inhibition of human SF295 cells after 48 hrs by Sulforhodamine B assay; assay type: functional; details: SF-295, 48 h, read-out: logGI50 (converted)
U-251 = assay: Growth inhibition of human U251 cells after 48 hrs by Sulforhodamine B assay; assay type: functional; details: U-251, 48 h, read-out: logGI50 (converted)
SF-268 = assay: Growth inhibition of human SF268 cells after 48 hrs by Sulforhodamine B assay; assay type: functional; details: SF-268, 48 h, read-out: logGI50 (converted)
MCF7 = assay: Growth inhibition of human MCF7 cells after 48 hrs by Sulforhodamine B assay; assay type: functional; details: MCF7, 48 h, read-out: logGI50 (converted)
[3] = Growth inhibition of human HBC5 cells after 48 hrs by Sulforhodamine B assay; assay type: functional; details: HBC5, 48 h, read-out: logGI50 (converted)
[4] = Growth inhibition of human HBC4 cells after 48 hrs by Sulforhodamine B assay; assay type: functional
MKN-45 = assay: Growth inhibition of human MKN45 cells after 48 hrs by Sulforhodamine B assay; assay type: functional; details: MKN-45, 48 h, read-out: logGI50 (converted)
[5] = Growth inhibition of human MKN1 cells after 48 hrs by Sulforhodamine B assay; assay type: functional; details: MKN-1, 48 h, read-out: logGI50 (converted)
OVCAR-4 = assay: Growth inhibition of human OVCAR4 cells after 48 hrs by Sulforhodamine B assay; assay type: functional; details: OVCAR-4, 48 h, read-out: logGI50 (converted)
OVCAR-8 = assay: Growth inhibition of human OVCAR8 cells after 48 hrs by Sulforhodamine B assay; assay type: functional; details: OVCAR-8, 48 h, read-out: logGI50 (converted)
NCI-H226 = assay: Growth inhibition of human NCI-H226 cells after 48 hrs by Sulforhodamine B assay; assay type: functional; details: NCI-H226, 48 h, read-out: logGI50 (converted)
KM12 = assay: Growth inhibition of human KM12 cells after 48 hrs by Sulforhodamine B assay; assay type: functional; details: KM12, 48 h, read-out: logGI50 (converted)
HT-29 = assay: Growth inhibition of human HT-29 cells after 48 hrs by Sulforhodamine B assay; assay type: functional; details: HT-29, 48 h, read-out: logGI50 (converted)
SNB-75 = assay: Growth inhibition of human SNB75 cells after 48 hrs by Sulforhodamine B assay; assay type: functional; details: SNB-75, 48 h, read-out: logGI50 (converted)
MDA-MB-231 = assay: Growth inhibition of human MDA-MB-231 cells after 48 hrs by Sulforhodamine B assay; assay type: functional; details: MDA-MB-231, 48 h, read-out: logGI50 (converted)
[6] = Growth inhibition of human BSY1 cells after 48 hrs by Sulforhodamine B assay; assay type: functional; details: BSY-1, 48 h
HBC4 [7] = assay: Induction of golgi disassembly in human HBC4 cells assessed as presence of GBF1 in cytoplasm at 0.1 to 1 uM after 1 hr by immunofluorescence microscopy; assay type: functional, cell-based
BSY-1 [8] = assay: Induction of golgi disassembly in human BSY1 cells assessed as presence of GBF1 in cytoplasm at 0.1 to 1 uM after 1 hr by immunofluorescence microscopy; assay type: functional, cell-based
[9] = Induction of golgi disassembly in human HBC4 cells assessed as presence of GBF1 in cytoplasm after 1 hr by immunofluorescence microscopy; assay type: functional, cell-based
[10] = Induction of golgi disassembly in human BSY1 cells assessed as presence of GBF1 in cytoplasm after 1 hr by immunofluorescence microscopy; assay type: functional, cell-based; details: bsy-1
HBC4 [11] = assay: Induction of golgi disassembly in human HBC4 cells assessed as presence of GBF1 in cytoplasm at 10 uM after 1 hr by immunofluorescence microscopy; assay type: functional, cell-based
BSY-1 [12] = assay: Induction of golgi disassembly in human BSY1 cells assessed as presence of GBF1 in cytoplasm at 1 uM after 1 hr by immunofluorescence microscopy; assay type: functional, cell-based
[13] = Homo sapiens, HBC4, 48 h, read-out: GI50

Work on `C/C(=C\C=C\[C@@H]1[C@H]2[C@H](C)[C@@H](O)[C@H](C)C[C@@H]2C=C[C@@H]1C)C(=O)NCc1cccnc1` (stereo in doubt; form 1) yielded a GI50 (PC-3) of 45.7 nM, a GI50 (DU-145) of 245 nM and a GI50 (MKN-74) of 56.2 nM. It also gave a GI50 (MKN-7) of 50.1 nM, a GI50 (MKN-28) of 79.4 nM and a GI50 (St-4) of 195 nM. For the same compound, the GI50 [1] was 53.7 nM, the GI50 (ACHN) was 47.9 nM and the GI50 (SK-OV-3) was 41.7 nM. It also gave a GI50 (OVCAR-3) of 33.1 nM, a GI50 (OVCAR-5) of 38.9 nM and a GI50 (LOX IMVI) of 22.9 nM. The GI50 (DMS-114) was 39.8 nM, the GI50 (A549) was 57.5 nM and the GI50 (DMS-273) was 53.7 nM. It also gave a GI50 (NCI-H460) of 91.2 nM, a GI50 (NCI-H522) of 123 nM and a GI50 (NCI-H23) of 53.7 nM. For the same compound, the GI50 (HCT-116) was 40.7 nM, the GI50 (HCT-15) was 70.8 nM and the GI50 (SNB-78) was 51.3 nM. It also gave a GI50 [2] of 39.8 nM, a GI50 (SF-539) of 52.5 nM and a GI50 (SF-295) of 58.9 nM. For the same compound, the GI50 (U-251) was 58.9 nM, the GI50 (SF-268) was 44.7 nM and the GI50 (MCF7) was 42.7 nM. The GI50 [3] was 34.7 nM, the GI50 ([4]; read-out: logGI50 (converted)) was 41.7 nM and the GI50 (MKN-45) was 31.6 nM. It also gave a GI50 [5] of 30.2 nM, a GI50 (OVCAR-4) of 31.6 nM and a GI50 (OVCAR-8) of 39.8 nM. The GI50 (NCI-H226) was 23.4 nM, the GI50 (KM12) was 35.5 nM and the GI50 (HT-29) was 33.9 nM. It also gave a GI50 (SNB-75) of 23.4 nM, a GI50 (MDA-MB-231) of 24 nM and a GI50 ([6]; read-out: logGI50 (converted)) of 12.6 nM.
For `CC/C(=C\C=C\[C@@H]1[C@H]2[C@H](C)[C@@H](O)[C@H](C)C[C@@H]2C=C[C@@H]1C)C(=O)NCc1cccnc1`, the Activity (HBC4 [7]) was “Active”, the Activity (BSY-1 [8]) was “Active” and the EC50 [9] was 340 nM. The EC50 [10] was 850 nM, the GI50 [4, 13] was 550 nM and the GI50 ([6]; read-out: GI50) was 190 nM.
For `C[C@@H]1[C@@H](O)[C@H](C)C[C@@H]2C=C[C@H](C)[C@H](/C=C/C(=O)NCc3cccnc3)[C@@H]12`, the EC50 [9] was greater than 10000 nM, the EC50 [10] was greater than 10000 nM and the Activity (HBC4 [11]) was “inactive”. For the same compound, the Activity (BSY-1 [12]) was “inactive”, the GI50 [4, 13] was greater than 10000 nM and the GI50 ([6]; read-out: GI50) was greater than 10000 nM.

Source: ChEMBL document CHEMBL2311520, “Total synthesis of AMF-26, an antitumor agent for inhibition of the Golgi system, targeting ADP-ribosylation factor 1” (J Med Chem, 2013)
